Measurements: patent publication EP0245209A1, “Milbemycin derivatives, their preparation and their use as pesticides” (CIBA-GEIGY AG, priority 1986, dated 1987)

Tests used:
Assay type in all cases: in vivo
Meloidogyne incognita = experiment: Soil nematicidal action against Meloidogyne incognita (tomato plants, root-knot index); settings: after 4 weeks
Protocol: Beispiel B.4: Bodennematizide Wirkung gegen Meloidogyne incognita
(§1) Eier von Meloidogyne incognita werden in Sand eingemischt. Dieses Gemisch wird dann in 200 ml fassende Tontöpfe eingebracht (5000 Eier pro Topf). Am gleichen Tag wird pro Topf eine 3 Wochen alte Tomatenpflanze gepflanzt und der aus 50 %-igem Emulsionskonzentrat formulierte Wirkstoff mittels Druckapplikation in die Töpfe hineingegeben. Die eingetopften Pflanzen werden nun bei einer Temperatur von 26!1°C und einer relativen Luftfeuchtigkeit von 60 % in einem Gewächshaus aufgestellt. Nach Ablauf von 4 Wochen erfolgt eine Evaluierung durch Untersuchung der Pflanzen auf Wurzelgallbildung nach dem sogenannten Wurzelgall-Index ("Knot Index").

[1] = system: Ll-Larven von Lucilia cuprina; experiment: Action against L1 larvae of Lucilia cuprina (as B.2); settings: niedrigere Konzentrationen (below 100 ppm)
Protocol: (§2) 1 ml einer wässrigen Suspension der zu prüfenden Aktivsubstanz werden so mit 3 ml eines speziellen Larvenzuchtmediums bei ca. 50°C vermischt, dass ein Homogenisat von wahlweise 250 ppm oder 100 ppm Wirkstoffgehalt entsteht. In jede Reagenzglas-Probe werden ca. 30 Lucilia-Larven (L1) eingesetzt. Nach 4 Tagen wird die Mortalitätsrate bestimmt. Die Verbindungen aus den Herstellungsbeispielen zeigen bei 250 ppm eine Wirkung von 100 %, wobei Verbindungen aus den Herstellungsbeispielen diese Wirkung auch noch bei der reduzierten Wirkstoffkonzentration von 100 ppm erzielen, wie beispielsweise die Verbindungen Nr. 1.10, 1.18, 1.26, 1.34, 1.39, 1.43, 1.46, 1.54, 1.58, 1.62, 1.82, 1.90 und 1.114.
Beispiel B.3: Wirkung gegen Ll-Larven von Lucilia cuprina
Der Test wird wie unter B.2 beschrieben durchgeführt, jedoch mit Larven von Lucilia cuprina. […] Bei manchen Verbindungen wird dieser Effekt bereits mit niedrigeren Konzentrationen erreicht, beispielsweise mit den Verbindungen Nr. 1.34, 1.90 und 1.114.

Caenorhabditis elegans = experiment: Soil nematicidal action against Caenorhabditis elegans (as B.4); settings: test as B.4
Protocol: as §1
Beispiel B.5: Bodennematizide Wirkung gegen Caenorhabditis elegans
Der Test wird wie unter B.4 beschrieben durchgeführt, jedoch mit Caenorhabditis elegans. Die Verbindungn der Herstellungsbeispiele zeigen in diesem Test eine gute Wirksamkeit. Um eine fast vollständige Hemmung der Reproduktion zu erreichen, genügen bei manchen Verbindungen Konzentrationen von 1 ppm und weniger, wie beispielsweise bei den Verbindungen Nr. 1.39, 1.70 und 1.90 und vor allem Nr. 1.2, 1.3, 1.26, 1.43 und 1.66.

Aedes aegypti = experiment: Larvicidal action against Aedes aegypti (larvae in water); settings: niedrigere Konzentrationen (below 3 ppm)
Protocol: Beispiel B.10: Larvizidwirkung gegen Aedes aegypti
Auf die Oberfläche von 150 ml Wasser, das sich in einem Behälter befindet, wird soviel einer 0,1 %igen acetonischen Lösung des Wirkstoffes pipettiert, dass Konzentrationen von wahlweise 12,5 ppm, 3,3 ppm und 1,6 ppm erhalten werden. Nach Verdunsten des Acetons wird der Behälter mit ca. 30-40 3 Tage alten Aedes-Larven beschickt. Nach 1, 2 und 5 Tagen wird die Mortalität geprüft.

[2] = system: LI-Larven von Lucilia sericata; experiment: Action against L1 larvae of Lucilia sericata (larval culture medium, mortality); settings: reduced concentration of 100 ppm; after 4 days
Protocol: Beispiel B.2: Wirkung gegen LI-Larven von Lucilia sericata
as §2

Substance: 13β-([-]-Menthyloxy)-carbonyloxy-milbemycin A4 [1.90]
- Konzentration für fast vollständige Hemmung der Reproduktion (Meloidogyne incognita): ≤ 1 ppm
- Vernichtung des Schädlings [1]: vollständige Vernichtung
- Konzentration für fast vollständige Hemmung der Reproduktion (Caenorhabditis elegans): ≤ 1 ppm
- Abtötung sämtlicher Larven (Aedes aegypti): vollständige Abtötung
- Wirkung (Mortalitätsrate) [2]: 100%
